Reference: PubChem BioAssay (NCI)
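The compound was tested at five concentrations on cells cultured in 96-well plates, with a 48-hour exposure period. TGI denotes the concentration required for complete inhibition of growth.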

Assays:
Assay in all cases: growth of human tumour cells (NCI), 48 h
[1] = system: 786-0 renal
[2] = system: A498 renal
[3] = system: A549 NSCLC
[4] = system: ACHN renal
[5] = system: CAKI-1 renal
[6] = system: CCRF-CEM leukemia
[7] = system: DLD-1 colon
[8] = system: DMS 114 small cell lung
[9] = system: DMS 273 small cell lung
[10] = system: HCC-2998 colon
[11] = system: HCT-116 colon
[12] = system: HCT-15 colon
[13] = system: HOP-62 NSCLC
[14] = system: HT29 colon
[15] = system: K-562 leukemia
[16] = system: KM12 colon
[17] = system: LOX IMVI melanoma
[18] = system: LXFL 529 NSCLC
[19] = system: M14 melanoma
[20] = system: M19-MEL melanoma
[21] = system: MALME-3M melanoma
[22] = system: MOLT-4 leukemia
[23] = system: NCI-H226 lung
[24] = system: NCI-H23 lung
[25] = system: NCI-H460 lung
[26] = system: NCI-H522 lung
[27] = system: OVCAR-3 ovarian
[28] = system: OVCAR-4 ovarian
[29] = system: OVCAR-5 ovarian
[30] = system: OVCAR-8 ovarian
[31] = system: RPMI-8226 leukemia
[32] = system: RXF 393 renal
[33] = system: RXF-631 renal
[34] = system: SF-268 CNS
[35] = system: SF-295 CNS
[36] = system: SF-539 CNS
[37] = system: SK-MEL-2 melanoma
[38] = system: SK-MEL-28 melanoma
[39] = system: SK-MEL-5 melanoma
[40] = system: SK-OV-3 ovarian
[41] = system: SN12C renal
[42] = system: SNB-19 CNS
[43] = system: SNB-75 CNS
[44] = system: SNB-78 CNS
[45] = system: SR leukemia
[46] = system: SW-620 colon
[47] = system: TK-10 renal
[48] = system: U251 CNS
[49] = system: UACC-257 melanoma
[50] = system: UACC-62 melanoma
[51] = system: UO-31 renal
[52] = system: COLO 205 colon
[53] = system: EKVX NSCLC
[54] = system: HL-60(TB) leukemia
[55] = system: HOP-18 NSCLC
[56] = system: HOP-92 NSCLC
[57] = system: IGROV1 ovarian
[58] = system: KM20L2 colon

## CCN1c2ccccc2-c2c3c1cc(C)cc3c1ccccc1[n+]2CC
[1]
  TGI: 4.22 µM
[2]
  TGI: 13.9 µM
[3]
  TGI: 13.8 µM
[4]
  TGI: 8.95 µM
[5]
  TGI: 5.88 µM
[6]
  TGI: 2.83 µM
[7]
  TGI: 17.8 µM
[8]
  TGI: 5.84 µM
[9]
  TGI: 1.58 µM
[10]
  TGI: 2.11 µM
[11]
  TGI: 3.89 µM
[12]
  TGI: 22.6 µM
[13]
  TGI: 5.15 µM
[14]
  TGI: 3.92 µM
[15]
  TGI: 2.12 µM
[16]
  TGI: 1.41 µM
[17]
  TGI: 1.89 µM
[18]
  TGI: 1.86 µM
[19]
  TGI: 3.74 µM
[20]
  TGI: 1.27 µM
[21]
  TGI: 7.73 µM
[22]
  TGI: 3.41 µM
[23]
  TGI: 3.69 µM
[24]
  TGI: 4.08 µM
[25]
  TGI: 2.73 µM
[26]
  TGI: 3.52 µM
[27]
  TGI: 2.39 µM
[28]
  TGI: 5.57 µM
[29]
  TGI: 4.1 µM
[30]
  TGI: 1.86 µM
[31]
  TGI: 2.92 µM
[32]
  TGI: 9.51 µM
[33]
  TGI: 43.4 µM
[34]
  TGI: 2.04 µM
[35]
  TGI: 3.21 µM
[36]
  TGI: 2.51 µM
[37]
  TGI: 4.29 µM
[38]
  TGI: 2.46 µM
[39]
  TGI: 1.84 µM
[40]
  TGI: 5.68 µM
[41]
  TGI: 3.35 µM
[42]
  TGI: 3.16 µM
[43]
  TGI: 2.2 µM
[44]
  TGI: 12 µM
[45]
  TGI: 5.21 µM
[46]
  TGI: 6.63 µM
[47]
  TGI: 9.66 µM
[48]
  TGI: 2.68 µM
[49]
  TGI: 1.65 µM
[50]
  TGI: 2.23 µM
[51]
  TGI: 20.8 µM

## Nc1ccccc1C(=O)/C=C/c1c(O)ccc2ccccc12
[1]
  TGI: > 100 µM
[2]
  TGI: > 100 µM
[3]
  TGI: > 100 µM
[4]
  TGI: > 100 µM
[5]
  TGI: > 100 µM
[6]
  TGI: > 100 µM
[52]
  TGI: > 100 µM
[7]
  TGI: > 100 µM
[8]
  TGI: > 100 µM
[9]
  TGI: > 100 µM
[53]
  TGI: > 100 µM
[10]
  TGI: > 100 µM
[11]
  TGI: > 100 µM
[12]
  TGI: > 100 µM
[54]
  TGI: > 100 µM
[55]
  TGI: > 100 µM
[13]
  TGI: > 100 µM
[56]
  TGI: > 100 µM
[14]
  TGI: > 100 µM
[57]
  TGI: > 100 µM
[15]
  TGI: > 100 µM
[16]
  TGI: > 100 µM
[58]
  TGI: > 100 µM
[17]
  TGI: 44.9 µM
[18]
  TGI: > 100 µM
[19]
  TGI: > 100 µM
[20]
  TGI: 43.4 µM
[21]
  TGI: > 100 µM
[22]
  TGI: > 100 µM
[23]
  TGI: > 100 µM
[24]
  TGI: > 100 µM
[25]
  TGI: > 100 µM
[26]
  TGI: > 100 µM
[27]
  TGI: > 100 µM
[28]
  TGI: > 100 µM
[29]
  TGI: > 100 µM
[30]
  TGI: > 100 µM
[31]
  TGI: > 100 µM
[32]
  TGI: > 100 µM
[33]
  TGI: > 100 µM
[34]
  TGI: > 100 µM
[35]
  TGI: > 100 µM
[36]
  TGI: > 100 µM
[37]
  TGI: > 100 µM
[38]
  TGI: > 100 µM
[39]
  TGI: > 100 µM
[40]
  TGI: > 100 µM
[41]
  TGI: > 100 µM
[42]
  TGI: > 100 µM
[43]
  TGI: > 100 µM
[44]
  TGI: > 100 µM
[45]
  TGI: > 100 µM
[46]
  TGI: > 100 µM
[47]
  TGI: > 100 µM
[48]
  TGI: > 100 µM
[49]
  TGI: > 100 µM
[50]
  TGI: > 100 µM
[51]
  TGI: > 100 µM
